This assay deals with purified polypeptide (carbonyl reductase) from the Brevundimonas diminuta NBRC 12697 strain. The assay can be described thus: Substrate specificity of purified polypeptide: reducing activity against carbonyl compounds (NADH decrease at 340 nm). The format is biochemical. The following applies: substrate 2 mM, NADH 0.167 mM, 100 mM phosphate buffer pH 6.5, 0.4% (v/v) DMSO, 30° C., 3 minutes; activity against ethyl N-Boc-2-amino-3-cyclohexyl-3-oxopropionate taken as 100%.
For the compound `O=C(c1ccccc1)C(F)(F)F` [2,2,2-trifluoroacetophenone], the relative activity is on record as 42277%. To `O=C(CCl)c1cccc(Cl)c1` [2,3′-dichloroacetophenone] belongs 12719%; to `CC(=O)c1ccco1` [2-acetylfuran], 164%; to `O=C(CCl)c1ccccc1` [2-chloroacetophenone], 12789%. As for `CCCCC(C)=O` [2-hexanone], the relative activity was 1540%.

With `CC(C=O)c1ccccc1` (centres unmarked) [2-phenylpropionaldehyde], the relative activity is given as 621%. To `CC(=O)c1ccncc1` [4-acetylpyrridine] belongs 1149%.

`CCOC(=O)C(Cl)C(=O)c1ccccc1` (centres unmarked) [Ethyl 2-chloro-3-oxo-3-phenylpropionate]: the relative activity stood at 1139%. To `CCOC(=O)C(Cl)C(C)=O` (centres unmarked) [Ethyl 2-chloroacetoacetate] belongs 7264%. `CCOC(=O)C(C)C(C)=O` (centres unmarked) [Ethyl 2-methylacetoacetate]: the relative activity was 425%.

For `CCOC(=O)C1CCCC1=O` (centres unmarked) [Ethyl 2-oxocyclopentanecarboxylate], the relative activity worked out at 199%.

Take `CCCC(=O)C(=O)OCC` [Ethyl 2-oxopentanoate]: the relative activity was found to be 6046%. To `CCOC(=O)CC(=O)CCl` [Ethyl 4-chloroacetoacetate] belongs 533470%; to `CCOC(=O)C(NC(=O)OC(C)(C)C)C(=O)C1CCCCC1` (centres unmarked) [Ethyl N-Boc-2-amino-3-cyclohexyl-3-oxopropionate], 100%. Under `CCOC(=O)C(=O)c1ccccc1` [Ethyl benzoylformate] stands 12198%. To `COC(=O)CC(C)=O` [Methyl acetoacetate] belongs 1095%. Consider `COC(=O)C(C)=O` [Methyl pyruvate], for which the relative activity was 5625%.

Regarding `CC(=O)CC(C)=O` [acetylacetone], the relative activity was 273%. For the compound `CC12CCC(C(=O)C1=O)C2(C)C` (centres unmarked) [camphorquinone], the relative activity is 4737%. Under `CC(=O)C(C)=O` [diacetyl] stands 4830%; under `CC(=O)c1cccc(Cl)c1` [m-chloroacetophenone], 4368%. As to `O=Cc1cccc(Cl)c1` [m-chlorobenzaldehyde], the relative activity was found to be 2138%. With `CC(=O)C=O` [methylglyoxal], the relative activity amounted to 248%. Regarding `CCCCCC=O` [n-hexylaldehyde], the relative activity is 2160%. On to `CC(=O)c1ccccc1Cl` [o-chloroacetophenone], for which the relative activity is on record as 350%.

On to `O=Cc1ccccc1Cl` [o-chlorobenzaldehyde], for which the relative activity was 1219%. Under `CC(=O)c1ccc(Cl)cc1` [p-chloroacetophenone] stands 534%; under `O=Cc1ccc(Cl)cc1` [p-chlorobenzaldehyde], 445%. Under `O=C1CCSC1` [tetrahydrothiophen-3-one] stands 156%.

(Values after patent US8304216B2, “Method for production of erythro-or threo-2-amino-3-hydroxypropionic acid ester, novel carbonyl reductase, gene for the reductase, vector, transformant, and method for production of optically active alcohol using those” (Kaneka Corporation, priority 2006, dated 2012).)
